# In ChEMBL document CHEMBL3507680, “University of Dundee, Gates Library screen for HepG2 cell viability”:
# Assay: Human HepG2 cell viability assay in 384 well format
# Type: toxicity, cell-based
# Set-up: dose 125 nL, time 70.5 hour; concentration not given beside the values
# Details: HepG2 cells, read-out: Inhibition
row,Compound,cytotoxicity at 70.5 h [%]
1,CC(C)NC(=O)c1ccc2nnc(C3CCN(S(C)(=O)=O)C3)n2c1 (centres undefined),-0.738
2,OC1(CN2CCCC2)COCCN(c2noc(-c3ccccc3)n2)C1 (centres undefined),-11
3,COCC(C)N(C)C(=O)c1nc(S(C)(=O)=O)n2ccccc12 (centres undefined),-0.102
4,NCCn1cc(C(=O)N2CCNC(=O)C2c2cccc(F)c2)nn1 (centres undefined),-11.9
5,CC(C)OCCNC1(c2ccc(Cl)cc2)CCOCC1,-0.58
6,Cc1ccc(-c2nc(CCNC(=O)C3CC(=O)N(C)C3)cs2)cc1 (centres undefined),-98.5
7,COc1ccc(CN(C)[C@@H]2CN(C(=O)c3cccn3C)C[C@H]2O)cc1,16.9
8,Cc1cc(C)cc(-c2cc(C3CCOC3)c(C#N)c(N)n2)c1 (centres undefined),12.8
9,Cc1cc(CCC(N)=O)cc(C2CCCN2Cc2cnc(C)nc2)n1 (centres undefined),-7.32
10,C[C@@H]1CN(C(=O)CCCN2CCOCC2)C[C@@]1(O)C1CC1,-5.23
11,O=C(NCc1ccncc1)N(Cc1ccc(F)cc1F)C1CC1,-5.41
12,O=C(O)COc1ccc(CN2CCCC(CCc3ccccc3)C2)cc1 (centres undefined),20.1
13,Cc1ccc(CN2CCC[C@]3(C(=O)O)CN(C)C[C@@H]3C2)s1,-14.3
14,CCC(CNC(=O)c1ccco1)N1CCc2ccccc2C1 (centres undefined),-12.8
15,CNC(=O)c1ccccc1-c1ccc(S(C)(=O)=O)cc1,-4.9
16,CCCc1noc(CCC(=O)NC(C)c2nnc3n2CCCCC3)n1 (centres undefined),-9.55
17,CN1CCC(CNC(=O)c2ccc3cccc(Cl)c3n2)C1 (centres undefined),-6.3
18,Fc1ccc(F)c(CN2CCC(c3n[nH]c4ncccc34)CC2)c1,-7.24
19,CC(C)(C)NC(=O)CNc1ccc(C#N)c(C(F)(F)F)c1,-5.25
20,CN1CCC(N[C@@H]2CO[C@H](CNC(=O)C3CCCC3)[C@H]2O)CC1,-3.54
21,N#Cc1ccc(CN2C[C@@H]3OCC(=O)N[C@@H]3C2)cc1,-5.15
22,COc1ccc([C@@H]2CN(C(=O)CCc3cc(Cl)no3)C[C@H]2N(C)C)cc1,4

row,Compound,cytotoxicity at 70.5 h [%]
1,O=S(=O)(NCCc1nnc2ccccn12)c1cccnc1,14.7
2,COc1ccc(Cn2cc(C(=O)N(C)Cc3cnccn3)nn2)cc1,-14.3
3,Cc1ccc(C(C(=O)NCc2cc(C)[nH]n2)N(C)C)cc1 (centres undefined),-8.58
4,O=C(CCC(=O)N1CCC(Oc2ncccc2Br)CC1)c1ccccc1,-9.39
5,CCc1nc2n(n1)CCCC2NC(=O)Nc1cc(OC)ccc1C (centres undefined),3.05
6,COCC1CN(Cc2ccc(C)s2)Cc2nnn(C)c21 (centres undefined),2.8
7,Cc1ccccc1OCC(O)CN1CCC(c2ccn[nH]2)CC1 (centres undefined),-4.42
8,OC1(Cn2ccc3ncccc32)CCN(Cc2ccccc2F)CC1,2.31
9,CCOc1ncccc1C(=O)N1CCCC(n2nc(C)cc2C)C1 (centres undefined),-5.39
10,CC(C)c1nn(C)c(N(C)C)c1CNC1CCCOc2ccccc21 (centres undefined),31.4
11,CC(=O)N(C)Cc1ncn2c1CN(C(=O)C1CCCO1)CCC2 (centres undefined),-5.86
12,COCc1ccccc1CNC(=O)CNc1cccc(Cl)c1OC,-2.8
13,O=C(c1ncccn1)N1C[C@@H]2CN(CC3CC3)CCO[C@@H]2C1,-13.4
14,CC(NC(N)=O)C(=O)N(C)CCCc1cc(-c2ccccc2)no1 (centres undefined),-21.7
15,Cn1ncc2c(N[C@@H]3C[C@@H]4CC[C@H]3C4)nc(-c3ccncc3)nc21,-2.05
16,Cc1csc(CNc2cccc(OCCN3CCCC3)c2)n1,19.9
17,O=C1NCC[C@]12CN(Cc1cccnc1)C[C@H]2c1ccccc1,-3.58
18,O=C(NCc1ccccc1)[C@@H]1Cc2[nH]cnc2CN1CC1CC1,-3.43
19,CCOCC(=O)N1CCC2(CC1)CN(Cc1cccnc1)C(=O)CO2,-9.22
20,Cc1cc2c(N)nc(=O)n(CC(=O)Nc3cccc(Cl)c3)c2s1,-13.3
21,Cc1noc(C)c1C(C)C(=O)N1CCCN(C)c2ccc(Cl)cc21 (centres undefined),-6.12
22,Cc1noc([C@@H]2C[C@@H]3CCN(c4nnc(C)s4)C[C@H]3O2)n1,-11.6
